The record followed here is patent US7704992B2, “Hepatitis C virus inhibitors” (Bristol-Myers Squibb Company, priority 2008, dated 2010).

Read-outs that look alike come from different tables or passages of the source.

This assay has as its system HCV 1b-377-neo replicon cells. Kind of assay: HCV Replicon assay, HCV 1b genotype. It is filed as cell-based. The procedure:
An HCV Replicon assay was utilized in the present disclosure, and was prepared, conducted and validated as described in commonly owned PCT/US2006/022197 and in O'Boyle et. al. Antimicrob Agents Chemother. 2005 April; 49(4): 1346-53.
HCV 1b-377-neo replicon cells were used to test the currently described compound series as well as cells resistant to compound A containing a Y2065H mutation in NS5A (described in application PCT/US2006/022197). The compounds tested were determined to have more than 10-fold less inhibitory activity on cells containing the mutation than wild-type cells indicating a related mechanism of action between the two compound series. Thus, the compounds of the present disclosure can be effective to inhibit the function of the HCV NS5A protein and are understood to be as effective in combinations as previously described in application PCT/US2006/022197 and commonly owned WO/04014852. Further, the compounds of the present disclosure can be effective against the HCV 1b genotype. It should also be understood that the compounds of the present disclosure can inhibit multiple genotypes of HCV. […] In one embodiment compounds of the present disclosure are active against the 1a, 1b, 2a, 2b, 3a, 4a, and 5a genotypes.
(In general: Replicon systems follow genome replication, usually without infectious particles.)

[1] abbreviates: class symbol, read-out: EC50 range against HCV 1b.
Setting [2] is: Hepatitis C virus, class symbol, read-out: EC50 range against HCV 1b.

With `COC(=O)N[C@H](C(=O)N1CCC[C@H]1c1ncc(-c2ccc3c4ccc(-c5cnc([C@@H]6CCCN6C(=O)[C@@H](NC(=O)OC)[C@@H](C)OC)[nH]5)cc4n(C)c3c2)[nH]1)[C@@H](C)OC` [Example 23, methyl ((1S,2R)-2-methoxy-1-(((2S)-2-(5-(7-(2-((2S)-1-(N-(methoxycarbonyl)-O-methyl-L-threonyl)-2-pyrrolidinyl)-1H-imidazol-5-yl)-9-methyl-9H-carbazol-2-yl)-1H-imidazol-2-yl)-1-pyrrolidinyl)carbonyl)propyl) carbamate], the EC50 under setting [1] is 0.001 to 0.1 nM. With `COCC[C@H](NC(=O)OC)C(=O)N1CCC[C@H]1c1ncc(-c2ccc3c4ccc(-c5cnc([C@@H]6CCCN6C(=O)[C@H](CCOC)NC(=O)OC)[nH]5)cc4n(C)c3c2)[nH]1` [Example 24, methyl ((1S)-3-methoxy-1-(((2S)-2-(5-(7-(2-((2S)-1-(N-(methoxycarbonyl)-O-methyl-L-homoseryl)-2-pyrrolidinyl)-1H-imidazol-5-yl)-9-methyl-9H-carbazol-2-yl)-1H-imidazol-2-yl)-1-pyrrolidinyl)carbonyl)propyl) carbamate], the EC50 under setting [1] lay within 0.101 to 0.999 nM. Regarding `COC(=O)N[C@H](C(=O)N1CCC[C@H]1c1ncc(-c2ccc3c4ccc(-c5cnc([C@@H]6CCCN6C(=O)[C@@H](NC(=O)OC)C(C)C)[nH]5)cc4n(C)c3c2)[nH]1)C(C)C` [Example 25, methyl ((1S)-1-(((2S)-2-(5-(7-(2-((2S)-1-((2S)-2-((methoxycarbonyl)amino)-3-methylbutanoyl)-2-pyrrolidinyl)-1H-imidazol-5-yl)-9-methyl-9H-carbazol-2-yl)-1H-imidazol-2-yl)-1-pyrrolidinyl)carbonyl)-2-methylpropyl)carbamate], the EC50 under setting [2] was 0.001 to 0.1 nM. Take `COC(=O)N[C@@H](C)C(=O)N1CCC[C@H]1c1ncc(-c2ccc3c4ccc(-c5cnc([C@@H]6CCCN6C(=O)[C@H](C)NC(=O)OC)[nH]5)cc4n(S(=O)(=O)c4ccccc4)c3c2)[nH]1` [Example 26, methyl ((1S)-2-((2S)-2-(5-(7-(2-((2S)-1-(N-(methoxycarbonyl)-L-alanyl)-2-pyrrolidinyl)-1H-imidazol-5-yl)-9-(phenylsulfonyl)-9H-carbazol-2-yl)-1H-imidazol-2-yl)-1-pyrrolidinyl)-1-methyl-2-oxoethyl)carbamate]: under setting [2], the EC50 fell in the range of 0.001 to 0.1 nM. As to `COC(=O)N[C@H](C(=O)N1CCC[C@H]1c1ncc(-c2ccc3c4ccc(-c5cnc([C@@H]6CCCN6C(=O)[C@@H](NC(=O)OC)C(C)C)[nH]5)cc4n(S(=O)(=O)c4ccccc4)c3c2)[nH]1)C(C)C` [Example 27, methyl ((1S)-1-(((2S)-2-(5-(7-(2-((2S)-1-((2S)-2-((methoxycarbonyl)amino)-3-methylbutanoyl)-2-pyrrolidinyl)-1H-imidazol-5-yl)-9-(phenylsulfonyl)-9H-carbazol-2-yl)-1H-imidazol-2-yl)-1-pyrrolidinyl)carbonyl)-2-methylpropyl)carbamate], under setting [2], the EC50 lay in the range of 0.001 to 0.1 nM. On the same count and under the same terms, the figure for `COCC[C@H](NC(=O)OC)C(=O)N1CCC[C@H]1c1ncc(-c2ccc3c4ccc(-c5cnc([C@@H]6CCCN6C(=O)[C@H](CCOC)NC(=O)OC)[nH]5)cc4n(S(=O)(=O)c4ccccc4)c3c2)[nH]1` [Example 28, methyl ((1S)-3-methoxy-1-(((2S)-2-(5-(7-(2-((2S)-1-(N-(methoxycarbonyl)-O-methyl-L-homoseryl)-2-pyrrolidinyl)-1H-imidazol-5-yl)-9-(phenylsulfonyl)-9H-carbazol-2-yl)-1H-imidazol-2-yl)-1-pyrrolidinyl)carbonyl)propyl)carbamate] is 0.001 to 0.1 nM.

Turning to `COC(=O)N[C@@H](C)C(=O)N1CCC[C@H]1c1ncc(-c2ccc3c(c2)[nH]c2cc(-c4cnc([C@@H]5CCCN5C(=O)[C@H](C)NC(=O)OC)[nH]4)ccc23)[nH]1` [Example 30, methyl ((1S)-2-((2S)-2-(5-(7-(2-((2S)-1-(N-(methoxycarbonyl)-L-alanyl)-2-pyrrolidinyl)-1H-imidazol-5-yl)-9H-carbazol-2-yl)-1H-imidazol-2-yl)-1-pyrrolidinyl)-1-methyl-2-oxoethyl)carbamate], the concentration giving a half-maximal response (EC50) (Hepatitis C virus, value in nM, read-out: EC50 value against HCV 1b) was 20 nM. For `COCC[C@H](NC(=O)OC)C(=O)N1CCC[C@H]1c1ncc(-c2ccc3c(c2)[nH]c2cc(-c4cnc([C@@H]5CCCN5C(=O)[C@H](CCOC)NC(=O)OC)[nH]4)ccc23)[nH]1` [Example 31, methyl ((1S)-3-methoxy-1-(((2S)-2-(5-(7-(2-((2S)-1-(N-(methoxycarbonyl)-O-methyl-L-homoseryl)-2-pyrrolidinyl)-1H-imidazol-5-yl)-9H-carbazol-2-yl)-1H-imidazol-2-yl)-1-pyrrolidinyl)carbonyl)propyl) carbamate], the EC50 under setting [2] lay in the range of 1 to 99 nM. Still for that read-out and setting: the figure for `COC(=O)N[C@H](C(=O)N1CCC[C@H]1c1ncc(-c2ccc3c(c2)[nH]c2cc(-c4cnc([C@@H]5CCCN5C(=O)[C@@H](NC(=O)OC)C(C)C)[nH]4)ccc23)[nH]1)C(C)C` [Example 32] is 0.101 to 0.999 nM; for `COCCn1c2cc(-c3cnc([C@@H]4CCCN4C(=O)[C@@H](NC(=O)OC)C(C)C)[nH]3)ccc2c2ccc(-c3cnc([C@@H]4CCCN4C(=O)[C@@H](NC(=O)OC)C(C)C)[nH]3)cc21` [Example 33, methyl ((1S)-1-(((2S)-2-(5-(7-(2-((2S)-1-((2S)-2-((methoxycarbonyl)amino)-3-methylbutanoyl)-2-pyrrolidinyl)-1H-imidazol-5-yl)-9-(2-methoxyethyl)-9H-carbazol-2-yl)-1H-imidazol-2-yl)-1-pyrrolidinyl)carbonyl)-2-methylpropyl)carbamate] it is 0.001 to 0.1 nM. Still for that read-out and setting: in the case of `COCCn1c2cc(-c3cnc([C@@H]4CCCN4C(=O)[C@H](C)NC(=O)OC)[nH]3)ccc2c2ccc(-c3cnc([C@@H]4CCCN4C(=O)[C@H](C)NC(=O)OC)[nH]3)cc21` [Example 34, methyl ((1S)-2-((2S)-2-(5-(7-(2-((2S)-1-(N-(methoxycarbonyl)-L-alanyl)-2-pyrrolidinyl)-1H-imidazol-5-yl)-9-(2-methoxyethyl)-9H-carbazol-2-yl)-1H-imidazol-2-yl)-1-pyrrolidinyl)-1-methyl-2-oxoethyl)carbamate] it was 1 to 99 nM. In the case of `COCCn1c2cc(-c3cnc([C@@H]4CCCN4C(=O)[C@@H](NC(=O)OC)[C@@H](C)OC)[nH]3)ccc2c2ccc(-c3cnc([C@@H]4CCCN4C(=O)[C@@H](NC(=O)OC)[C@@H](C)OC)[nH]3)cc21` [Example 35, methyl ((1S,2R)-2-methoxy-1-(((2S)-2-(5-(7-(2-((2S)-1-(N-(methoxycarbonyl)-O-methyl-L-threonyl)-2-pyrrolidinyl)-1H-imidazol-5-yl)-9-(2-methoxyethyl)-9H-carbazol-2-yl)-1H-imidazol-2-yl)-1-pyrrolidinyl)carbonyl)propyl)carbamate], the EC50 (Hepatitis C virus, value in pM, read-out: EC50 value against HCV 1b) was found to be 0.662 nM.

For orientation: EC50 means the concentration giving half of the maximal effect.
